# Measured values published in patent publication US9387257B2, “Lung cancer specific peptides for targeted drug delivery and molecular imaging” (Academia Sinica, priority 2014, dated 2016).
# Where no end group is shown, it is not given here.
# Experiments:
# [1] = Pharmacokinetic and biodistribution study in mice bearing H460 xenografts; format: in vivo, SCID mice; conditions: single i.v. dose 2 mg/kg
# Experimental: SCID mice bearing H460 lung cancer xenografts (˜300 mm^3) were injected in the tail vein with either free drug doxorubicin (FD), liposomal doxorubicin (LD), or targeting (HSP1, HSP2 or HSP4) LD at a single dose of 2 mg/kg. At 1 hr and 24 hr post-injection, blood samples were collected through submaxillary punctures before mice were anaesthetized and sacrificed (three mice in each group). Then the mice were perfused with 50 ml PBS through heart, xenograft tumors and organs (brain, lung, heart, liver, and kidney) were dissected, weighted, and homogenized to calculate amount of doxorubicin in tissues. Total doxorubicin was quantified by measuring fluorescence at λEx/Em=485/590 nm using a spectrofluorometer (SPECTRAMAX® M5, Molecular Devices).
# [2] = tested on: human lung cancer cell lines (H460, H661, H1993, H441, CL1-5, A549, H520, H1688); assay: Flow cytometry surface binding of FITC-conjugated peptides to lung cancer cell lines; format: cell-based; conditions: 20 μg/mL FITC-conjugated peptide, 4° C., 1 hour; large cell, adeno-, squamous cell and small cell carcinoma lines
# Experimental: (§1) The lung cancer cell lines or control cells were collected using enzyme-free cell dissociation buffer, and then were incubated with 20 μg/mL FITC-conjugated HSP1, 2, 4 or control peptide at 4° C. for 1 hour. After washing, cells were analyzed by flow cytometer.
# H460 cells [3] = assay: Endocytosis assay (confocal microscopy); format: cell-based, human; conditions: peptide-conjugated LSRB; 4° C. vs 37° C.
# Experimental: H460 cells were incubated with HSP1, HSP2, HSP4-LSRB or LSRB for 10 min at 4° C. and 37° C. After being washed with PBS, the cells were fixed by 4% paraformaldehyde, blocked by 1% BSA, and then stained with WGA-ALEXA FLUOR® […] and DAPI for cell membrane and nucleus. All fluorescence images were obtained by confocal microscopy.
# [4] = tested on: H460 human lung large cell carcinoma xenografts; assay: Ligand-targeted therapy, lung large cell carcinoma xenograft model; format: in vivo, SCID mice; conditions: large tumor ~500 mm^3; 2 mg/kg/injection i.v. twice a week
# Experimental: Female SCID mice 4-6 weeks of age were injected subcutaneously in the dorsolateral flank with human NSCLC cells. Mice with size-matched tumors (approximately 75 mm^3 for small tumor; 300 or 500 mm^3 for large tumor) were then randomly assigned to different treatment groups, and were injected intravenously with liposomal doxorubicin (LD), liposomal vinorelbine (LV), targeting peptide (HSP1, HSP2 or HSP4)-conjugated LD or LV, free doxorubicin (FD), free vinorelbine (FV) or equivalent volumes of saline. The dosages of drugs and administration time courses were described in figure legends depend on different experiment design. Mouse body weights and tumor sizes were measured twice a week. Tumor volumes were calculated according to this formula: length×(width)^2×0.52. Animal care was carried out in accordance with guidelines of Academia Sinica, Taipei, Taiwan. The protocol was approved by the Committee on the Ethics of Animal Experiments of Academia Sinica.
# [5] = tested on: H1993 adenocarcinoma cells; assay: Immunofluorescence staining (IFA) of FITC-labeled peptides; format: cell-based, human; conditions: 10 μg/mL FITC-labeled peptide, fixed H1993 cells
# Experimental: (§2) H460 and H1993 cells were seeded and grown to about 50% confluence on cover slips. After the cells had been fixed with 2% paraformaldehyde, they were incubated with 10 μg/mL FITC-labeled HSP1, 2, 4 or control peptides. Then the slides were counterstained with 4′,6-diamidino-2-phenylindole (DAPI), mounted and examined under a Leica universal fluorescent microscope. The images were merged using the MetaMorph Image Analysis Software.
# [6] = tested on: H460 large cell carcinoma cells; assay: as above; format: cell-based, human; conditions: 10 μg/mL FITC-labeled peptide, fixed H460 cells
# Experimental: as §2
# H460 cells [7] = assay: Uptake of targeting peptide-conjugated LSRB; format: cell-based, human; conditions: for uptake of LSRB: peptide-conjugated LSRB at high concentration / higher doses; for liposome internalization compared to non-targeting LSRB: peptide-conjugated liposomal SRB, time course, 37° C.
# Experimental: (§3) H460 and H1993 cells were grown on a 24-well plate to 90% confluency, and 20, 10, 5, 2.5, 1.25, 0.625 μM HSP1, 2, 4-liposomal sulforhodamine B (LSRB) or LSRB in complete culture medium was added. The cells were incubated at 37° C., at the following time periods: 10, 30 min, 1, 2, 4, 8, 16 and 24 hours. At the indicated time point, cells were washed with PBS, and non-internalized LSRB on the cell surface was removed by adding 0.1 M Glycine, pH 2.8 for 10 min. Cells were then lysed with 200 μl 1% Triton X-100. Uptake of LD at low concentration in H1993 cells was performed using same protocol. For extraction of SRB or doxorubicin, 300 μl IPA (0.75 N HCl in isopropanol) was added to the lysate and shaken for 30 min. After the lysate was centrifuged at 12,000 rpm for 5 min, the amount of uptakes were determined by measuring Excitation/Emission wavelengths of fluorescence at 520/570 nm for SRB and 485/590 nm for doxorubicin using, a spectrofluorometer (SPECTRAMAX® M5, Molecular Devices). The concentration of SRB and doxambicin were calculated by interpolation using a standard curve.
# H1993 cells = assay: Uptake of targeting peptide-conjugated LSRB; format: cell-based, human; conditions: peptide-conjugated liposomal SRB, time course, 37° C.
# Experimental: as §3
# [8] = tested on: human normal bronchial epithelial cell (NL20); assay: Flow cytometry surface binding of FITC-conjugated peptides to normal cells; format: cell-based; conditions: 20 μg/mL FITC-conjugated peptide, 4° C., 1 hour
# Experimental: as §1
# H460 cells [9] = assay: In vitro cytotoxicity assay of targeting peptide-conjugated LD (MTT); format: cell-based, human; conditions: for decrease of the half maximal inhibitory concentration (IC50) compared to LD: peptide-conjugated LD at optimal peptide ratio, H460 cells; for reduction in IC50 in vitro: peptide-mediated DDS, summary statement
# Experimental: H460 cells were seeded in 96-well plates (5000 cells/well) in complete culture media and were incubated overnight. Next day, cells were treated with varying concentration (0˜100 μM) of HSP1-LD, HSP2-LD, HSP4-LD or LD at 37° C. for 24 hours; After removal of the excess drug, the cells were washed once with PBS and continued to incubate with fresh culture medium for 48 h at 37° C. The cell viability was measured by adding 50 μl of MTT (Thiazolyl Blue Tetrazolium Bromide; Sigma-Aldrich) to each well of the plate. After 3.5 hours MTT incubation, 150 μl of Dimethyl sulfoxide (DMSO; Mallinckrodt Baker) was added to each well for 10 min, and the absorbance was determined with microplate reader (SPECTRAMAX® M5, Molecular Devices) at 540 nm.
# [10] = tested on: A549 adenocarcinoma orthotopic model; assay: Combination therapy in orthotopic lung cancer model; format: in vivo, SCID mice; conditions: HSP4-mediated combinatorial liposomes
# Experimental: SCID mice (6-week-old) were anesthetized with isofloruance mixed with oxygen and placed in the right decubitus position. The skin overlying the left chest wall in the mid-axillary line was prepared with alcohol, and the underlying, chest wall and intercostal spaces were visualized. […] After tumor injection, the mice were turned to left decubitus position and observed for 45 to 60 min until fully recovered.
# Luciferase-expressing cancer cells were imaged and quantified using IVIS200 system (Xenogen Corporation, Alameda, Calif.) at 10 minutes after i.p. injection of LUCWERIN™ (Caliper Life Sciences) before drug administration each time.
Compound,half-life in plasma compared to liposomal formulations [1],surface binding of FITC-labeled peptide (FACS) [2],binding versus internalization compared to HSP2 and HSP4 (H460 cells [3]),therapeutic efficacy of LD [4],binding of FITC-labeled peptide in cell IFA [5],binding of FITC-labeled peptide in cell IFA [6],uptake of LSRB (H460 cells [7]),liposome internalization compared to non-targeting LSRB (H460 cells [7]),liposome internalization compared to non-targeting LSRB (H1993 cells),surface binding of FITC-labeled peptide (FACS) [8],decrease of the half maximal inhibitory concentration (IC50) compared to LD (H460 cells [9]) [fold],reduction in IC50 in vitro (H460 cells [9]),adverse effect (body weight loss) [10],intracellular delivery of LSRB (H460 cells [7]; peptide-conjugated LSRB at low LSRB concentrations)
"COc1cccc2c1C(=O)c1c(O)c3c(c(O)c1C2=O)C[C@@](O)(C(=O)CO)C[C@@H]3O[C@H]1C[C@H](N)[C@H](O)[C@H](C)O1 [FD, doxorubicin]",much shorter half-life in plasma,–,–,–,–,–,–,–,–,–,–,–,–,–
GAMHLPWHMGTL (also: FITC label) [HSP1],–,prominent binding,stronger ability at binding than internalization,significantly improved therapeutic efficacy,can bind to a major group,can bind to a major group,better uptake ability,enhanced liposome internalization,enhanced liposome internalization,not to human normal bronchial epithelial cell,12.5,about 10 fold,–,–
KATEEQLKTVME (control peptide) [reference compound],–,–,–,–,cannot,cannot,–,–,–,–,–,–,–,–
"NNPWREMMYIEI [HSP4, NNPWREMMYIEI]",–,–,–,–,–,–,–,–,–,–,–,–,decreasing body weight loss,–
NPWEEQGYRYSM (also: FITC label) [HSP2],–,prominent binding,–,significantly improved therapeutic efficacy,can bind to a major group,can bind to a major group,no difference from non-targeting LSRB,enhanced liposome internalization,enhanced liposome internalization,not to human normal bronchial epithelial cell,13,about 10 fold,–,prominent intracellular delivery
